Values joined by “and” are separate entries in the source; they are usually repeats but may differ in a detail not shown here. Equal values may be shown once. Residues, ends and D or L forms follow the SMILES beside them. *: point of attachment. Cbz = O=C(OCc1ccccc1)*
Columns and labels:
[1] = target: T1, proteasome (post-glutamic hydrolase activity) of MNT1 cells (Homo sapiens, UniProt P28072); test: Proteasome LLE (post-glutamic hydrolase) activity assay on lyzates of treated MNT1 cells; type: cell-based; settings: for Proteasome activity at 72 hours, Post-glutamic hydrolase: MNT1 cells lyzed 72 hours after treatment, palmitic or linoleic acid 25 μM, Phaeodactylum 5 μg/ml, Mg132 120 nM where stated; for post-glutamic hydrolase peptidase activity of the proteasome, change in words: 72 hours after addition, MNT-1 melanocytes, FIG. 1B
T1 construct: introduce in duplicate a fixed volume of cell lyzate; endogenous in cells; host or cells: MNT1 human melanocyte line (lysate)
T1 sequence (P28072 1-239): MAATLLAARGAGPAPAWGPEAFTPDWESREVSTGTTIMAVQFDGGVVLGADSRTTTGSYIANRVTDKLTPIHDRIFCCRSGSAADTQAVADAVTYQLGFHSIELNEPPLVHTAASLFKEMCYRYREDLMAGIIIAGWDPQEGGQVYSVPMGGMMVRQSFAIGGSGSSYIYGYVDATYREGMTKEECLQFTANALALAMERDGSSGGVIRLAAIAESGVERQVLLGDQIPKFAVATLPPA
Procedure: 2.1 Treatment of MNT1 Cells (Human Melanocyte Cell Lines) in Order to Assay the Proteasome and Tyrosinase Activities
MNT1, 10^6 cells/dish 35 mm in diameter, in triplicate
(§1) Treatment on D1 • Linoleic acid 25 μM • Palmitic acid 25 μM • Phaeodactylum 5 μg/ml
+1% BSA+Vitamin E 50 μM+Vitamin C 1 mM • Linoleic acid 25 μM • Palmitic acid 25 μM • Phaeodactylum 5 μg/ml
Stirring with a magnetic bar at 37° C. for 1 hour • 2nd treatment on D4
+Cycloheximide 1 μg/ml (protein synthesis inhibitor)
+120 nM Mg132 for the assay of the tyrosinase activity. • Preparation of the lyzates after 4 hours
2 rinses with PBS (phosphate-buffered saline)
On a bed of ice; recovery in 150 μl of lysis buffer by scraping.
Freezing at ±20° C. • Protein assay via the Bradford method • Proteasome activity assay
The cells are rinsed twice with PBS and each peptidase activity of the proteasome is then determined by using a fluorogenic peptide substrate specific for each of the activities, in the presence and in the absence of a specific proteasome inhibitor, MG 132 (Leu-Leu-Leucinal). The peptide substrate products are the following: Leu-Leu-Val-Tyr-amc (LLVY-amc) for the chymotrypsin-like activity, Leu-Leu-Glu-na (LLE-na) for the post-glutamic hydrolase activity and Leu-Ser-Thr-Arg-amc (LSTR-amc) for the trypsin-like activity. The principle of the assay consists in monitoring over time the increase in fluorescence due to the release of the fluorophores aminomethylcoumarin or β-naphthylamine from the fluorogenic peptides.
b)—LLE Activity (Post-Glutamic Hydrolase)
The following cleavage reaction is studied: • Proteasome (LLE activity • (post-glutamic hydrolase) N-CBZ-LLE-NA→N-CBZ-LLE-+NA fluorescent
Reading on a spectrofluorimeter at an excitation wavelength of 333 nm and an emission wavelength of 410 nm.
The process is performed as follows: • In a 96-well plate, introduce in duplicate a fixed volume of cell lyzate (determined from the lowest protein concentration of the samples, which should correspond to 20 μg of protein) and make up to 100 μl with TRIS buffer. • Add 100 μl of LLE-NA substrate prediluted to 300 μM in the TRIS buffer (150 μM final). • Take the spectrofluorimeter readings at an excitation wavelength of 340 nm and an emission wavelength of 410 nm at a gain of 83 every 2 minutes, for 35 minutes.
The raw results are expressed in F.U./min.
The assay is performed on 200 μl of reaction volume containing a volume V of cell lyzate set as a function of the protein concentrations of the lyzates.
From the calibration range, the activity may be expressed in pmol of MCA released/minute/mg of protein:
For the assay of the proteasome activities, the cells were lyzed at 72 hours after the cell treatment, and the protein concentration was determined.

[2] = test system: tyrosinase in MNT-1 melanocytes; test: Anti-tyrosinase western blot of treated MNT1 cells, bands quantified; type: cell-based, human; settings: for amount of tyrosinase, change in words: 24 hours or 72 hours after treatment of MNT-1 melanocytes, FIGS. 4A and 4B; for Quantification of tyrosinase at 24 hours / Quantification of tyrosinase at 72 hours: western blot bands, control = 100 %, palmitic or linoleic acid 25 μM, Phaeodactylum 5 μg/ml, Mg132 120 nM where stated; for Quantification of tyrosinase at 24 hours: MNT1 lyzed at 24 hours; for Quantification of tyrosinase at 72 hours: MNT1 lyzed at 72 hours
Procedure: 2.2 Treatment of MNT1 in Order to Assay the Proteasome, the Ubiquitin Proteins and the Tyrosinase by Western Blotting
10^6 MNT1 cells/dish 35 mm in diameter, in quadruplicate
as §1
+1% bovine serum albumin (BSA)+Vitamin E (Vitamin E) 50 μM+Vitamin C (Vitamin C) 1 mM • Linoleic acid 25 μM • Palmitic acid 25 μM • Phaeodactylum 5 μg/ml
Preparation of the Lyzates on D2, D3 and D4
Recovery of the cell lawn in 150 μl of Laemmli 2× buffer+1% DTT (10 mM) by scraping.
Electrophoresis of the proteins is performed in a polyacrylamide minigel 1 mm to […] thick, under denaturing and reducing conditions, in batch buffer according to the Laemmli method (1970). The gels containing 12% T, 2.7% C allow separation of the low molecular weight proteins ranging from 20 to 120 kDa. The gels containing 8% T; 2.7% C allow separation of the high molecular weight proteins from 35 to 250 kDa.
Next, this membrane is placed in contact with the primary antibody diluted to the optimum concentration in PBS-T with or without 5% milk (m/v) depending on the antibody, for 1 hour with stirring at room temperature or overnight at 4° C.
Under the action of peroxidase and an amplifier, the luminol is oxidized and goes into a transient excited state. Return to the ground state takes place by emission of photons, which strike an autoradiography film placed on the membrane.
The bands are quantified by means of the Gels Analysts 3.01 software.
Starting with cell extracts of MNT-1 melanocytes cultured under these various conditions, with the protocols defined in the “Materials and methods” section, the effects of the extracts of the alga Phaeodactylum tricornutum on the amount of tyrosinase and of its activity were characterized.

[3] = test system: tyrosinase of MNT-1 melanocytes; test: Measurement of the tyrosinase (dopa-oxidase) activity in lyzates of treated MNT1 cells; type: cell-based, human; settings: for Tyrosinase activity at 72 hours: dopa-oxidase activity at 475 nm, MNT1 lyzed 72 hours after treatment, palmitic or linoleic acid 25 μM, Phaeodactylum 5 μg/ml, Mg132 120 nM where stated
Procedure: 2.1D: Measurement of the tyrosinase activity
The assay is based on measuring the dopa-oxidase activity of tyrosinase. The principle of the assay is based on the detection of dopachrome, which absorbs at 475 nm on FLUOstar (BMG)
Materials: • Lysis buffer • Substrate: L-DOPA (Sigma, D-9628, MW 197.2) at 10 mM in PBS, prepared extemporaneously due to the autoxidation of L-Dopa.
Human melanocytes in culture were treated with 25 μM of linoleic acid (±120 nM Mg132) or 25 μM of palmitic acid (±120 nM Mg132) or 5 μg/ml of Phaeodactylum (±120 nM Mg132) in MNT1 medium containing 1% BSA, 50 μM vitamin E and 1 mM vitamin C. The melanocytes were recovered and lyzed 72 hours after treatment. 50 μg of extract are then incubated with 1 mM of […] for one hour at 37° C. Measurement of the tyrosinase activity is performed at 475 nm every 2 minutes using a microplate reader thermostatically maintained at 37° C.
The Dopa-oxidase activity is obtained as OD/min/mg of protein. The blank is prepared with lysis buffer in the presence of L-DOPA.

SMILES | Proteasome activity at 72 hours, Post-glutamic hydrolase [1] | amount of tyrosinase, change in words [2] | Quantification of tyrosinase at 24 hours [2] | Quantification of tyrosinase at 72 hours [2] | Tyrosinase activity at 72 hours [3] | post-glutamic hydrolase peptidase activity of the proteasome, change in words [1] | tyrosinase activity, change in words ([3]; 72 hours after treatment of MNT-1 melanocytes, FIG. 5)
CC(C)C[C@@H](C=O)NC(=O)[C@H](CC(C)C)NC(=O)[C@H](CC(C)C)NC(=O)OCc1ccccc1 [Control + Mg132, Z-Leu-Leu-Leu-CHO] (Cbz-Leu-Leu-Leu-aldehyde) | 42 ± 5 nmol/min/mg | this decrease may be reversed | 100% | 100% | 18.35 ± 1.55 OD/min | – | –
CCCCC/C=C\C/C=C\CCCCCCCC(=O)O [Linoleic acid] | 78 ± 3.6 nmol/min/mg | significant decrease | 75% and 51% | 13% and 22% | 9.65 ± 2 OD/min | increase and do so significantly | significant decrease
CCCCCCCCCCCCCCCC(=O)O [Palmitic acid] | 54 ± 6 nmol/min/mg | – | 135% and 127% | 62% and 88% | 18.75 ± 1.9 OD/min | reduced | –
